In patent US10858305B2, “Perillyl alcohol-3-bromopyruvate conjugate and methods of treating cancer” (NeOnc Technologies, Inc., priority 2016, dated 2020):
“Also recorded” adds a separate entry of the source.

How the values were obtained:
[1] = tested on: MDA-MB-231 triple-negative breast cancer cells; assay: Subcutaneous MDA-MB-231 xenograft in nude mice; assay type: in vivo; conditions: 5 mg/kg on days 1, 5, 9
Method: The anticancer activity of NEO218 in vivo was investigated next. MDA-MB-231 triple-negative breast cancer cells were subcutaneously implanted into 12 nude mice. After two weeks, the animals were separated into 2 groups for treatment with either vehicle (no drug) or NEO218 (5 mg/kg). Then, NEO218 (or vehicle) was administered on days 1, 5, and 9 (3 doses total, 4 days apart). Tumor growth was measured with calipers every 3 days from day 1 (=start of treatment) until day 13 (end of experiment).
The panels show tumor growth over time for each individual animal.

[2] = tested on: cleaved caspase 7, cleaved PARP, γ-H2AX in MCF7, MDA-MB-231 and HCT116 cells; assay: Western blot for apoptosis markers; assay type: cell-based, human; conditions: STS as positive control
Method: (A) FACS analysis of HCT116 cells after treatment for 2, 4, or 8 hours with vehicle, 30 μM 3-BP, 30 μM NEO218, or 1 μM staurosporine (STS). […] (B) Western blot analysis of apoptotic markers. In the top section, MDA-MB-231 cells were treated with 30 μM NEO218 or 1 μM STS for various time points. In the lower section, HCT116 cells were treated with the indicated concentrations of 3-BP, NEO218, or STS for 16 hours. In all cases cell lysates were prepared and analyzed for the well-established apoptotic markers cleaved PARP, cleaved (i.e., activated) caspase 7 (cl. C-7), and phosphorylated (i.e., active) H2AX. Actin was used as a loading control. (C) HCT116 cells were pretreated with 50 μM Z-VAD-FMK for one hour, followed by the addition of increasing concentrations of 3-BP or NEO218. Cell viability was determined by MTT assay 24 hours later. Data points are averages from n=3.
The capacity for NEO218 to induce apoptosis was evaluated in a series of experiments. Three different cell lines were treated 3-BP and NEO218. Drug-treated cells were harvested, and cellular lysates were analyzed by Western blot for the presence of the three well-established markers of apoptosis: • cleaved caspase 7 (cl. C7); • cleaved (cl.) vs. full-length (f.l.) PARP; and, • induction of γ-H2AX (which indicates DNA cleavage).
The appearance of cl. C7 and cl. PARP is indicative of ongoing apoptotic processes. In all cases, lysates were also probed for the presence of actin as a control.
Two breast cancer cell lines (MCF7 and MDA-MB-231) and one colon cancer cell line (HCT116) were treated with increasing concentrations of NEO218 or 3-BP. As a control, they were also treated with staurosporine (STS), a known potent inducer of apoptosis. Western blot analyses for the presence of apoptosis markers are shown in the left panels of FIG. 6.
Total cell lysates were analyzed by Western blot analysis as described earlier. Primary antibodies against cleaved caspase 7 and PARP were obtained from Cell Signaling Technology (Danvers, Mass.), and antibodies against actin (C-11) and MCT1 (H-1) were obtained from Santa Cruz Biotechnology (Santa Cruz, Calif.). All antibodies were used according to the manufacturers' recommendations, except that in the case of MCT1 detection, the boiling step was omitted before loading the samples onto the polyacrylamide gel. All immunoblots were repeated at least once to confirm the results.

[3] = tested on: MDA-MB-231, T47D, T98G, U251, HCT116 and A2780 cancer cells; assay: MTT assay, cell viability after 48 hours in six cancer cell lines; assay type: cell-based, human
Excerpt: The tumor cell-killing potency of NEO218 was characterized by in vitro, short-term MTT assays (measuring viability of cells via determination of metabolic activity), LDH assays (measuring the release of lactate dehydrogenase as an indicator of leaky cell membranes, which are indicative of dying cells), and colony-formation assays (CFA, which determine long-term survival of drug-treated cells and their ability to spawn a colony of descendants). Several established cell lines derived from cancers of the breast were used as target cells (including MDA-MB-231; MDA-MB-468; T47D; MCF7; MCF7/Dox; BTB12), brain (T98G; U251), ovary (A2780), and colon (HCT116). In all cases, cells in culture were exposed to increasing concentrations of agents for 24 or 48 hours.
Cell lines from different cancer types were treated with increasing concentrations of 3-bromopyruvate (3-BP) or NEO218. After 48 hours, cell viability was measured by MTT assay. MDA-MB-231 and T47D are breast cancer cells; T98G and U251 are brain cancer (glioblastoma) cells; HCT116 are colon cancer cells; A2780 are ovarian cancer cells.

tumor cell lines = assay: cells; assay type: cell-based, human
Method: Different tumor cell lines were treated with 3-BP mixed with POH, and the effects were compared to the effects of NEO218, as well as to 3-BP alone. The cells were treated for 24 hours, and then the MTT assay was conducted to measure cell viability.

MDA-MB-231 cells = assay: Colony formation assay in MDA-MB-231 cells; assay type: cell-based; conditions: Homo sapiens; MDA-MB-231, 48 hours drug then 10-14 days; read-out: effective concentration (half-maximal), CFA
Method: (A) MTT assay was performed after 24 hours. […] (B) LDH assay was performed after […]. LDH release by untreated cells was set to 1. Relative fold increase is shown (n=3).
(A) MTT assay was performed after 24 hours. Viability of untreated cells was set at 100% (data points are averages of 2 experiments). (B) LDH assay was performed after 24 hours. LDH release by untreated cells was set to 1. Relative fold increase is shown (averages from 2 experiments). (C) Representative photos show typical colony formation after initial 48 hours of drug treatment. In all cases of combination treatment with 3-BP mixed with […] (3-BP+POH), the indicated concentrations refer to each individual drugs, i.e., 100 μM 3-BP+POH means that 100 μM 3-BP was combined with 100 μM POH.
Depending on the cell line (and plating efficiency), 250-800 cells were seeded into each well of a 6-well plate and treated as described in detail previously. After 12-16 days, colonies (defined as groups of >50 cells) were visualized by staining for 4 hours with 1% methylene blue (in methanol), and then were-counted. Experiments were repeated at least once, but usually more often under different conditions.

SMILES | organ toxicity or other side effects [1] | tolerability in mice [1] | tumor growth compared with vehicle group [1] | tumor volume at the end of the experiment ([1]; day 13, all animals) | induction of apoptosis markers (cleaved PARP, cleaved caspase 7, γ-H2AX) [2] | IC50 ([3]; Homo sapiens, all six cell lines) | cancer cell killing effects compared with 3-BP ([3]; MTT) | cytotoxic potency compared with the other treatments (tumor cell lines) | IC50 (MDA-MB-231 cells)
C=C(C)[C@@H]1CC=C(COC(=O)C(=O)CBr)CC1 [NEO218, 3-bromo-2-oxo-propionic acid 4-isopropenyl-cyclohex-1-enylmethyl ester] | organ toxicity or other side effects were not detected | tolerated this compound quite well | slower tumor growth | below 200 cubic millimeters | responded only minimally, if at all; also recorded: barely affects these same markers | 15 to 40 µM | more potent cancer cell killing effects than 3-BP in all cell lines | much more potent than any other treatment | –
O=C(O)C(=O)CBr [3-BP, 3-bromopyruvate] | – | – | – | – | responded only minimally, if at all | – | – | – | ~130 µM
